Consider one compound from article PMC12699179, “Investigating Metal and Fluorophore Controlled Intracellular Localization in Noble Metal Thiosemicarbazone Complexes” (Chemistry (Weinheim an Der Bergstrasse, Germany), 2025).

Where two headings read alike, the source gives them in different places.

The test system of data set [1] is HeLa cells. The experiment in a line: Live-cell confocal microscopy, colocalization with organelle trackers. The format is cell-based. Conditions: 10 µM, 24 hours, ± standard deviation. How it is done:
The subcellular behavior of the compounds was then assessed using a confocal microscope following incubation with HeLa cells (10 µM) for 6 hours and 24 hours, respectively (Figures S56, S57, and 5, 6). Moreover, we performed colocalization experiments with appropriate commercial organelle tracking dyes. As controls, we used the methyl and ethyl esters of 1 and 2, 1‐OMe and 2‐OEt, respectively. […] Moreover, the Pearson Correlation Coefficients (PCC) between 6 and the commercial lysosome tracker (LysoTracker deep red) channel improved over time from 0.63 to 0.81. Additionally, the distribution was distinct from 2‐OEt, corroborating that the Dp44mT scaffold directed the localization of the conjugates. Therefore, attaching BODIPY had no discernible effect on the lysosomal accumulation of Dp44mT.
Figure S55: Excitation (Exc) and emission (Em) spectra of BODIPY conjugates 6 and 7 at 10 µM in water. For (A) 6 and (B) 7a compounds, λex = 502 nm and λem = 519 nm; Slitwidth: […]; Sensitivity: low and medium, respectively. For (C) 7b and (D) 7c, λex = 519 nm and λem = 519 nm; Slitwidth: […]; Sensitivity: medium […]
collected at the appropriate emission wavelengths. […] The corresponding Pearson's Correlation Coefficients (PCCs) were calculated using Fiji (version 1.54f).[7] […]

The nature of data set [2]: Lipophilicity, n-octanol/PBS distribution (logD7.2). The note with it: n-octanol/PBS distribution at pH 7.2; mean of three measurements ± SD. The format is physicochemical. An excerpt: Having synthesized and assessed the stabilities of the complexes, we moved on to measure their lipophilicities at pH = 7.2 using the n‐octanol/PBS partition coefficient (Table 1).^[ [33], [34] ^] While the complexes were all highly lipophilic, the BODIPY‐conjugated complexes were more lipophilic than their coumarin analogs. In both sets of conjugates, the logD values followed the trend Pd(II) > Pt(II) > Au(III), with the monocationic Au(III) complexes being the least lipophilic.
7. Lipophilicity (logD7.2)
500 mL aliquots of purified octanol and PBS were thoroughly mixed in a 2 L separatory funnel and left overnight to saturate the two phases. For compound sets 5 and 7, 20 μM standard solutions were prepared in PBS-saturated octanol, respectively. 5 mL standard solutions containing the compound in question were then pipetted into 15 mL centrifuge tubes, and a 5 mL aliquot of the octanol-saturated PBS was added. The resulting samples were shaken for 10 min and allowed to rest overnight for 18 hours. The samples were then centrifuged for 30 min (3000 g, 20 °C), and aliquots of the octanol phase were analyzed via UV -Vis spectroscopy.
Experiments were conducted in triplicate. The concentrations of the compounds in the octanol phase were then quantified with respect to their λmax. […]
where A0 = absorbance of 20 μM compound in PBS-saturated octanol

Data set [3] concerns HeLa cells. Nature of the data set: MTT antiproliferative / cell viability assay. The format is cell-based. Conditions: mean of three ± SD. As for the experimental part:
We investigated the antiproliferative activities of compounds 4‒8 against HeLa cells using the standard 3‐(4,5‐dimethylthiazol‐2‐yl)‐2,5‐diphenyltetrazolium bromide (MTT) assay (Table 2). […]
8. Cell viability studies […]
media. All biological experiments were thus conducted using 5 mM stock solutions in DMSO that were diluted with culture medium to produce a final concentration of 0.5% DMSO for all experiments unless specified otherwise.
Cell viability experiments
HeLa cells were harvested, pelleted by centrifugation, and resuspended in cell culture medium. The MTT assays were carried out in 96 well plates at a starting density of 1500 cells per well in 100 µL of culture medium. The next day, a dilution series of 7 different concentrations was prepared for each evaluated compound. After 24 h of incubation, the cells were treated with 100 µL of culture medium containing the prepared conc entrations of the respective compounds to reach a final volume of 200 µL in each well. As a negative control, one series of cells was treated with the vehicle only (0.5% DMSO). […]
MTT dye (2.5 mg/mL). After a further incubation of 2 h, the medium was aspired off, and 200 µL DMSO was added to solubilize the precipitated formazan dye. The formazan absorption was measured on a BMG LABTECH CLARIOstar Plus plate reader at 550 nm, using a reference wavelength of 620 nm. Using the mean absorbance of each set of identically treated wells, a dose-response curve was produced and normalized to the wells containing untreated cells to allow for plate-to-plate comparison. The dose-response curves were then subjected to non-linear regression analysis performed in Microsoft Excel to determine IC50 values. Data is shown as the mean of three replicate experiments, and error bars represent the standard

What is called IC50 is the midpoint of a concentration-inhibition curve. On to `CC1=CC(C)=[N+]2C1=Cc1ccc(CCC(=O)NCCc3cccc(C4=[N+]5N=C(N(C)C)[S][Pt-2]5([Cl])[n+]5ccccc54)n3)n1[B-]2(F)F` (stereo not shown) [Compound 7b], for which, in the data set with HeLa cells [1], the “Pearson Correlation Coefficient (PCC) with ER Tracker” value worked out at 0.51 ± 0.01. Also, the “logD 7.2” value in data set [2] is given as 1.80 ± 0.04. The half-inhibitory concentration (IC50) is > 15 µM in the data set with HeLa cells [3] (24 hours incubation, read-out: IC50 24 hours) and 4.3 ± 0.3 µM with HeLa cells [3] (72 hours incubation, read-out: IC50 72 hours).
